Results from patent publication US5705170A, “Herbal cellulite treatments” (priority 1995, dated 1998).

Experiments:
[1] = test system: cAMP; assay: cAMP level (elevation of cAMP); format: cell-based, human
[2] = test system: adipocytes isolated from the thigh area of volunteers (adipocyte β receptors); assay: Lipolysis stimulation by glycerin release in isolated adipocytes; format: cell-based, human; conditions: for Emax: Homo sapiens, Adipocyte, read-out: Maximum stimulation (lipolysis); for Concentration at maximum stimulation: lipolysis
Description: Glycerin release was used as a parameter to quantify lipolysis in actively metabolism adipocytes isolated from the thigh area of volunteers and evaluate various ingredients for their ability to stimulate adipocyte β receptors. Refined, or purified Malvaceae extracts comprising preferred aqueous or lipophilic fractions as described above, and some known β-adrenergic stimulators used in anticellulite treatments, namely the xanthines aminophylline, caffeine and theophylline, were tested. Also tested, for comparative purposes, were a crude Hibiscus Abelmoschus extract and a herbal ingredient that has been used in anticellulite compositions, ivy extract.

[3] = test system: isolated adipocytes (adipocyte α2-receptors); assay: Inhibition of adipocyte lipid synthesis (lipogenesis); format: cell-based
From the text: The results obtained are reported below in Table 2.

[4] = glycerin release, most effective concentration

## Cn1c(=O)c2[nH]cnc2n(C)c1=O [theophylline]
[1]
  Elevation of cAMP: ns
[2]; [4]
  Emax: 45%
[2]
  Concentration at maximum stimulation: 1.00 mg/mL
[3]
  Lipogenesis inhibition (in words): No lipogenesis inhibition activity
  Maximum inhibition of adipocyte fat: none

## Cn1c(=O)c2c(ncn2C)n(C)c1=O [caffeine]
[1]
  Elevation of cAMP: ns
[2]; [4]
  Emax: 51%
[2]
  Concentration at maximum stimulation: 2.00 mg/mL

## Cn1c(=O)c2[nH]cnc2n(C)c1=O [aminophylline]
[1]
  Elevation of cAMP: ns
[2]; [4]
  Maximum stimulation (lipolysis): 54.0%
[2]
  Concentration at maximum stimulation: 1.00 mg/mL
[3]
  Lipogenesis inhibition (in words): No lipogenesis inhibition activity
  Maximum inhibition of adipocyte fat: none
